Each structure is given as a SMILES string. Activity calls are given as the source filed them. Some results are limits rather than exact numbers.

Common to all, as to assay type: functional
Test [1] has as its target T1, Ubiquitin-conjugating enzyme E2 N (Homo sapiens, UniProt P61088).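 Also: Dose-response confirmation in a TR-FRET assay detecting UBC13-driven polyubiquitin chain formation, inhibition measured.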
T1 sequence (P61088 whole entry): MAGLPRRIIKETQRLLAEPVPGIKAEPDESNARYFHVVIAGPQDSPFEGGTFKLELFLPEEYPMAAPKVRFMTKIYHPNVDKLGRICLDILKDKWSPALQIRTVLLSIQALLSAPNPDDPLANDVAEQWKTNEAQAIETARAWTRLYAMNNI

In test [2] the target is T2, Protein skinhead-1 (Caenorhabditis elegans, UniProt P34707).
T2 sequence (P34707 whole entry): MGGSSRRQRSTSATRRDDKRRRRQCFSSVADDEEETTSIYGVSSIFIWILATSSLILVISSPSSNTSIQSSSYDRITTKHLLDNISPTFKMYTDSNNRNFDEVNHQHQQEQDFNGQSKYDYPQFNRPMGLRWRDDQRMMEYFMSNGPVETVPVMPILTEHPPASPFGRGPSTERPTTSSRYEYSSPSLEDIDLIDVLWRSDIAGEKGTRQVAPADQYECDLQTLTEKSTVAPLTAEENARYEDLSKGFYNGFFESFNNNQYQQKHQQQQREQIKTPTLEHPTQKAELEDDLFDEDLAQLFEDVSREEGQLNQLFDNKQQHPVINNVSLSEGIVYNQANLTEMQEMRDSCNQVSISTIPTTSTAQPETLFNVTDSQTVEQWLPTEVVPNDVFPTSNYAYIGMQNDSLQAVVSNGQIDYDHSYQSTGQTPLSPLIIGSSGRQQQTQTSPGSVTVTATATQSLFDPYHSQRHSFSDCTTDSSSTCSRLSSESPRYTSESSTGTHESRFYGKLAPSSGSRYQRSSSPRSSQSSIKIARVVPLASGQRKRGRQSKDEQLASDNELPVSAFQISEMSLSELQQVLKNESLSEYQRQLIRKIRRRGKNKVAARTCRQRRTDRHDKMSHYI

In test [3] the target is T3, High affinity choline transporter 1 (Homo sapiens, UniProt Q9GZV3).
T3 sequence (Q9GZV3 whole entry): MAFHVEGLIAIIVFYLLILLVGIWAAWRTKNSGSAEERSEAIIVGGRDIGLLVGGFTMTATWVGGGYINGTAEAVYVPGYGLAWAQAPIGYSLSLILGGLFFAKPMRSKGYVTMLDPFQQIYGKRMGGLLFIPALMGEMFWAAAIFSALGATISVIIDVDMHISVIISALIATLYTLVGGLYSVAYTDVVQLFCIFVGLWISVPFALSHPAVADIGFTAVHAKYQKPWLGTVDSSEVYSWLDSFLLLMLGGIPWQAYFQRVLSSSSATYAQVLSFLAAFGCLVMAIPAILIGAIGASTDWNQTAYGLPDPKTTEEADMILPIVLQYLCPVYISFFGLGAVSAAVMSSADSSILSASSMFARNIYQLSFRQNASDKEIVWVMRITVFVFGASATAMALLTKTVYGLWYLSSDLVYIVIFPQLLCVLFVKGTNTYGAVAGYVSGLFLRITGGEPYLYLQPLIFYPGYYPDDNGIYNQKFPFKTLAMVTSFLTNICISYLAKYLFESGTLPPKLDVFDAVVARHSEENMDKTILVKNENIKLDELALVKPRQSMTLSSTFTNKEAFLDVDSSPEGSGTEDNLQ
As to the kind of experiment: CHT inhibitors, dose response, cell-based, 5-point CRC, membrane potential dye (AID 504840).

A short description of test [4]: intracellular Trypanosoma cruzi inhibitors in host cells – cell-based, plate reader, cherry-pick samples, set 3, dose response (AID 651818).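 Also: compounds incubated with infected cells for about four days.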
The target in test [5] is T4, Heat shock factor protein 1 (Mus musculus, UniProt P38532).
T4 sequence (P38532 whole entry): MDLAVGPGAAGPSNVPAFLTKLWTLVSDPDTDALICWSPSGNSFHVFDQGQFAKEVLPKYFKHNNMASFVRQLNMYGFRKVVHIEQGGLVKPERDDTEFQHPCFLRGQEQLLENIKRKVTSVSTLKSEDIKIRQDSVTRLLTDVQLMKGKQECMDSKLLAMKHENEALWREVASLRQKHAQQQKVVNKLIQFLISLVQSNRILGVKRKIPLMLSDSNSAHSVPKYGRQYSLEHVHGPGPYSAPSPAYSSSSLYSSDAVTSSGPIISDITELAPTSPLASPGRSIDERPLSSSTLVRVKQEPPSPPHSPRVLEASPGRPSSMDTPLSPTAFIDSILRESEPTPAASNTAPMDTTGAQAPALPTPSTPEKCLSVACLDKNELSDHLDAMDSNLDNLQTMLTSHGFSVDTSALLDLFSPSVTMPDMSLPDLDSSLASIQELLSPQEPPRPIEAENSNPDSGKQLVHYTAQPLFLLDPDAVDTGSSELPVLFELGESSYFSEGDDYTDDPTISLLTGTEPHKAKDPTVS
The test can be described thus: inhibition of MG132-induced HSE-luciferase signal, confirmation, cell-based, NIH3T3, luminescence, dose retest (AID 2382).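 Also: NIH3T3 fibroblasts with HSF1-driven luciferase reporter stressed by proteasome inhibitor MG132; luminescence from HSF1-driven luciferase expression after 8 hours of MG132 stress.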

Test [6] is described as follows: Shn3 3'UTR reporter inhibitors, dose response, cell-based, Clone20 osteoblasts, firefly luciferase, cherry-picked (AID 624132).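 Also: firefly luciferase luminescence from reporter carrying the Shn3 3'UTR in osteoblasts.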
A short description of test [7]: control 3'UTR Renilla luciferase suppression, dose response, counter-screen for Shn3 inhibitor project, cell-based, Clone20-Shn3RL, cherry-picked (AID 624133).

The term IC50 denotes the concentration that inhibits the measured activity by half. `Cc1ccc(C(=O)N[C@@H](C)CN2C3=NC[C@H](Cc4ccccc4)N3C[C@H]2Cc2ccc(O)cc2)cc1Br`: in test [1], the IC50 was > 20 µM (inactive).

On to `COc1cccc(-c2nn(C)c3sc(C(=O)NCCCN(C)Cc4ccccc4)cc23)c1`, for which the IC50 in test [1] was > 20 µM (inactive).

`N=c1oc2ccccc2cc1-c1nc(-c2ccccc2)cs1`: the IC50 in test [2] was > 100 µM (inactive).

Consider `O=C(Nc1ccccc1C(=O)NCCCN1CCOCC1)c1ccc(F)cc1`, for which the IC50 in test [3] was 7.09 µM (active).

Usually AC50 stands for the concentration at which the activity in the assay is half-maximal. For the compound `C[C@@H]1CN([C@H](C)CO)C(=O)Cc2cc(NS(=O)(=O)c3ccccc3)ccc2O[C@@H]1CN(C)Cc1ccc(C(=O)Nc2ccccc2N)cc1`, in test [4], the AC50 was 3.75 µM (active).

Take `CCOc1ccccc1NC(=O)COc1cccnc1[N+](=O)[O-]`: the IC50 in test [1] was > 20 µM (inactive).

Turning to `C[C@@H]1CCCCO[C@@H](CN(C)Cc2ccc(C(F)(F)F)cc2)[C@@H](C)CN([C@H](C)CO)C(=O)c2cc(NC(=O)C3CCCCC3)ccc2O1`, in test [4], the AC50 was 6.38 µM (active).

As to `COc1ccccc1NS(=O)(=O)c1cccc(C(=O)NNC(=O)c2ccc(Cl)nc2)c1`, the IC50 in test [1] was > 20 µM (inactive).

As a reminder, the EC50 is the midpoint of the concentration-response curve. As for `O=C(Nc1ccc(S(=O)(=O)N2CCOCC2)cc1)c1ccc(Cl)cc1Cl`, the IC50 in test [3] is 13.8 µM (active). Besides, in test [5], the EC50 is > 195 µM (not active).

Take `CCOC(=O)Cc1csc(NS(=O)(=O)c2ccc3c4c(cccc24)C(=O)N3CC)n1`: the IC50 in test [3] was 4.79 µM (active).

In the case of `COc1ccc(S(=O)(=O)Nc2ccc3c(c2)C(=O)N([C@H](C)CO)C[C@H](C)[C@@H](CN(C)Cc2ccc(-c4ccccc4)cc2)O3)cc1`, the AC50 in test [4] is 3.32 µM (active).

Regarding `CCc1c(C)nc2cc(-c3ccccc3)nn2c1O`, the IC50 in test [2] is > 100 µM (inactive).

Turning to `O=C(CCN1CCN(S(=O)(=O)c2ccc(Cl)cc2)CC1)Nc1ccc(F)cc1`, in test [2], the IC50 was > 100 µM (inactive).

As for `COc1ccc(S(=O)(=O)N(C)C[C@@H]2Oc3c(NC(=O)c4nc5ccccc5s4)cccc3C(=O)N([C@H](C)CO)C[C@@H]2C)cc1`, the AC50 in test [4] is 1.17 µM (active).

In the case of `C[C@H]1CN([C@@H](C)CO)C(=O)c2cccc(NC(=O)c3ccc(-c4nccs4)cc3)c2O[C@@H]1CN(C)Cc1ccc(-c2ccccc2)cc1`, in test [4], the AC50 is 2.93 µM (active).

As to `Cc1ccc2c(c1)N(CCCC(=O)NCC1COc3ccccc3O1)C(=O)CO2` (stereo unspecified), the IC50 in test [3] was 13.8 µM (active).

As to `NC(=S)N=Nc1c(O)n(CCCl)c2ccc(Cl)cc12`, the IC50 in test [1] is > 20 µM (inactive).

`CCOC(=O)C(=NC1CCS(=O)(=O)C1)NNc1cc(Cl)ccc1Cl` (stereo unspecified): the IC50 in test [1] is > 20 µM (inactive).

`CCCCNc1cccc2c1S(=O)(=O)N(CCCC)CC(COCc1ccccc1)O2` (stereo unspecified): the AC50 in test [6] was 8.93 µM (active); in test [7], 31.7 µM (active).

As for `COc1ccccc1NC(=O)CSc1nc2ccccc2n1C(C)=O`, in test [1], the IC50 was > 20 µM (inactive).

`O=C(COC(=O)CCCCCNC1=NS(=O)(=O)c2ccccc21)Nc1ccc(Cl)c(Cl)c1`: the IC50 in test [1] is > 20 µM (inactive).

Take `C[C@@H]1CN([C@@H](C)CO)C(=O)c2cccc(NS(=O)(=O)c3ccc(F)cc3)c2O[C@@H]1CN(C)Cc1ccc(Oc2ccccc2)cc1`: the half-maximal activity concentration (AC50) in test [4] is 7.95 µM (active).

Turning to `CN(C)S(=O)(=O)c1cccc(COc2ncnc3c(Cl)cc(Cl)cc23)c1`, in test [1], the IC50 was > 20 µM (inactive).

In the case of `CCOc1ccc(/C=C2\SC(=S)N(NC(=O)c3ccncc3)C2=O)cc1OC`, the IC50 in test [3] was 15.1 µM (active).

With `O=C(O)c1ccc2ccc3ccccc3c2c1`, in test [2], the IC50 is > 100 µM (inactive).

Regarding `C[C@@H]1CCCCO[C@@H](CN(C)CC2CCCCC2)[C@@H](C)CN([C@H](C)CO)C(=O)c2cc(NC(=O)Nc3ccc4c(c3)OCO4)ccc2O1`, the AC50 in test [4] was 0.75 µM (active).

Take `CCN(CC)c1ccc(C2NC(=O)c3ccccc3N2)cc1` (stereo unspecified): in test [2], the IC50 was > 100 µM (inactive).

Turning to `C/C=C(\C)CN1CCC(Oc2cccc(C(=O)NCc3ccccn3)c2)CC1`, the IC50 in test [3] is 12.3 µM (active).

Regarding `C[C@@H]1CN([C@H](C)CO)C(=O)Cc2cc(NC(=O)Nc3ccc(C(F)(F)F)cc3)ccc2O[C@@H]1CN(C)Cc1ccc(-c2ccccc2)cc1`, in test [4], the AC50 is 3.22 µM (active).

In the case of `C[C@@H]1CCCCO[C@H](CN(C)C(=O)NC2CCCCC2)[C@@H](C)CN([C@H](C)CO)C(=O)c2cc(NC(=O)Nc3ccc(C(F)(F)F)cc3)ccc2O1`, the AC50 in test [4] was 4.85 µM (active).

As for `Clc1ccc(-c2nc(-c3ccncc3)no2)c(Cl)c1`, the IC50 in test [2] is 6.36 µM (active).

`C[C@H]1CN([C@@H](C)CO)C(=O)c2cccc(NC(=O)C3CCCCC3)c2O[C@H]1CN(C)Cc1ccc(C(=O)Nc2ccccc2N)cc1`: the AC50 in test [4] was 3.38 µM (active).

Take `CCOc1ccc(-c2nc(-c3cccnc3)no2)cc1`: the half-inhibitory concentration (IC50) in test [2] was 22.6 µM (active).

As for `C[C@@H]1CN([C@H](C)CO)C(=O)Cc2cc(NC(=O)Nc3ccc(F)cc3)ccc2O[C@@H]1CN(C)Cc1ccc(Oc2ccccc2)cc1`, the AC50 in test [4] is 2.71 µM (active).

The record behind these values is ChEMBL document CHEMBL1201862, “PubChem BioAssay data set” (2004).
